Assay results published in US11180462B2, “Microbiocidal oxadiazole derivatives” (SYNGENTA PARTICIPATIONS AG, priority 2015, dated 2021).

Columns and labels:
[1] = test system: Puccinia recondita f. Sp. Tritici; assay: Fungicidal activity against Puccinia recondita f. sp. tritici / wheat / leaf disc curative (brown rust); type: in vivo; conditions: foliar, 24 h, 200 ppm in the applied formulation, wheat leaf segments, curative (applied 1 day after inoculation), compared to untreated control leaf disks, read-out: disease control
How it was run: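 Segments of wheat cv. Kanzler were laid on agar and inoculated with a spore suspension of the rust, then held in darkness at 19° C and 75% relative humidity. One day later the water-diluted formulated compound was applied, with incubation continued under a 12 h light/dark cycle.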

Phakopsora Pachyrhizi = assay: Fungicidal activity against Phakopsora pachyrhizi / soybean / leaf disc preventative (Asian soybean rust); type: in vivo; conditions: foliar, 200 ppm in the applied formulation, soybean leaf disks, compared to untreated control leaf disks, read-out: disease control
How it was run: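 Scored 12 to 14 days post-application as percent control relative to untreated check discs, rust spores were sprayed under the disc one day after compound treatment. Incubation: 20°C, 75% rh, first 24–36 h in darkness, then 12 h daily light; discs kept on water agar.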

[2] = test system: Glomerella lagenarium (Colletotrichum lagenarium); assay: Fungicidal activity against Glomerella lagenarium (Colletotrichum lagenarium) liquid culture / cucumber / preventative (anthracnose); type: cell-based; conditions: Colletotrichum orbiculare; 20 ppm in the applied formulation; liquid culture (PDB), growth inhibition measured photometrically after 3 to 4 days; compared to untreated control; read-out: disease control
How it was run: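 Percent activity against the untreated check was derived from photometric growth measurements made 2 to 7 days after conidia in potato dextrose broth were combined with compound at 20 ppm. Cultures were kept dark at 24 °C and 96% humidity.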

[3] = test system: Puccinia recondita f. Sp. Tritici; assay: Fungicidal activity against Puccinia recondita f. sp. tritici / wheat / leaf disc preventative (brown rust); type: in vivo; conditions: foliar, 200 ppm in the applied formulation, wheat leaf segments, preventative, compared to untreated control leaf disks, read-out: disease control
How it was run: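 200 ppm spray on wheat cv. Kanzler leaf segments; spore inoculation +1 day; 19° C., 75% rh, 12 h/12 h light cycle; single rating of % control vs untreated at 7 to 9 days.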

| Compound | pest or weed control at 200 ppm [1] [%] | pest or weed control at 200 ppm (Phakopsora Pachyrhizi) [%] | inhibition of growth at 20 ppm [2] [%] | pest or weed control at 200 ppm [3] [%] |
| --- | --- | --- | --- | --- |
| CCCN(Cc1ccc(-c2noc(C(F)(F)F)n2)cc1)C(=O)CC(F)(F)F [Compound 1.667, 3,3,3-trifluoroN-propyl-N-[[4-[5-(trifluoromethyl)-1,2,4-oxadiazol-3-yl]phenyl]methyl]-propanamide] | ≥ 80 | ≥ 80 | ≥ 80 | – |
| CON(Cc1ccc(-c2noc(C(F)(F)F)n2)cc1)C(=O)C1C(C)(C)C1(C)C [Compound 1.14, N-methoxy-2,2,3,3-tetramethyl-N-[[4-[5-(trifluoromethyl)-1,2,4-oxadiazol-3-yl]phenyl]methyl]-cyclopropane-carboxamide] | ≥ 80 | ≥ 80 | – | – |
| COC(C)C(=O)N(Cc1ccc(-c2noc(C(F)(F)F)n2)cc1)C1COC1 (stereo not shown) [Compound 1.750, 2-methoxy-N-(oxetan-3-yl)-N-[[4-[5-(trifluoromethyl)-1,2,4-oxadiazol-3-yl]phenyl]methyl]-propanamide] | ≥ 80 | ≥ 80 | – | – |
| C#CCN(Cc1ccc(-c2noc(C(F)(F)F)n2)cc1)C(=O)Cc1ccc(C#N)cc1 [Compound 1.193, 2-(4-cyanophenyl)-N-prop-2-ynyl-N-[[4-[5-(trifluoromethyl)-1,2,4-oxadiazol-3-yl]phenyl]methyl]-acetamide] | – | ≥ 80 | ≥ 80 | ≥ 80 |
| CC(C)N(Cc1ccc(-c2noc(C(F)(F)F)n2)cc1)C(=O)c1ccccc1Cl [Compound 1.672, 2-chloro-N-isopropyl-N-[[4-[5-(trifluoromethyl)-1,2,4-oxadiazol-3-yl]phenyl]methyl]-benzamide] | – | ≥ 80 | ≥ 80 | ≥ 80 |
| CCC(C)C(=O)N(CCO)Cc1ccc(-c2noc(C(F)(F)F)n2)cc1 (stereo not shown) [Compound 1.720, N-(2-hydroxyethyl)-2-methyl-N-[[4-[5-(trifluoromethyl)-1,2,4-oxadiazol-3-yl]phenyl]methyl]-butanamide] | – | ≥ 80 | ≥ 80 | ≥ 80 |
| CC(=O)CC(C)C(=O)N(Cc1ccc(-c2noc(C(F)(F)F)n2)cc1)CC1CC1 (stereo not shown) [Compound 1.209, N-(cyclopropylmethyl)-2-methyl-4-oxo-N-[[4-[5-(trifluoromethyl)-1,2,4-oxadiazol-3-yl]phenyl)methyl]-pentanamide] | – | ≥ 80 | ≥ 80 | ≥ 80 |
| O=C(C1CCC1)N(Cc1ccc(-c2noc(C(F)(F)F)n2)cc1)CC1CC1 [Compound 1.221, N-(cyclopropylmethyl)-N-[[4-[5-(trifluoromethyl)-1,2,4-oxadiazol-3-yl]phenyl]methyl]-cyctobutane-carboxamide] | – | ≥ 80 | ≥ 80 | ≥ 80 |
| O=C(C1CC1(F)F)N(CCO)Cc1ccc(-c2noc(C(F)(F)F)n2)cc1 (stereo not shown) [Compound 1.708, 2,2-difluoro-N-(2-hydroxyethyl)-N-[[4-[5-(trifluoromethyl)-1,2,4-oxadiazol-3-yl]phenyl]methyl]-cyclopropane-carboxamide] | – | ≥ 80 | ≥ 80 | ≥ 80 |
| CCCCON(Cc1ccc(-c2noc(C(F)(F)F)n2)cc1)C(=O)C1CCOC1 (stereo not shown) [Compound 1.636, N-butoxy-N-[[4-[5-(trifluoromethyl)-1,2,4-oxadiazol-3-yl]phenyl]methyl]-tetrahydrofuran-3-carboxamide] | – | ≥ 80 | ≥ 80 | ≥ 80 |
| CCCON(Cc1ccc(-c2noc(C(F)(F)F)n2)cc1)C(=O)C1CCCO1 (stereo not shown) [Compound 1.312, N-propoxy-N-[[4-[5-(trifluoromethyl)-1,2,4-oxadiazol-3-yl]phenyl]methyl]-tetrahydrofuran-2-carboxamide] | – | ≥ 80 | ≥ 80 | ≥ 80 |
